Results published in ChEMBL document CHEMBL5465560, “Selectivity Literature for EUbOPEN Chemogenomic Library” (2024).
Each block holds one compound with its values, some of them ahead of it.

What was measured:
[1] = target: Homeodomain-interacting protein kinase 2 (Homo sapiens, UniProt Q9H2X6); test: Selectivity interaction (Kinase panel (Z-LYTE Assay)) EUB0001632a HIPK2; conditions: at 10 µM
[2] = target: T1, Mitogen-activated protein kinase kinase kinase kinase 2 (Homo sapiens) (UniProt Q12851); test: Selectivity interaction (ActivX KiNativ screen (kinase selectivity in THP-1 cell lysates)) EUB0000639a MAP4K2; type: subcellular; conditions: lysate
T1 sequence (whole entry): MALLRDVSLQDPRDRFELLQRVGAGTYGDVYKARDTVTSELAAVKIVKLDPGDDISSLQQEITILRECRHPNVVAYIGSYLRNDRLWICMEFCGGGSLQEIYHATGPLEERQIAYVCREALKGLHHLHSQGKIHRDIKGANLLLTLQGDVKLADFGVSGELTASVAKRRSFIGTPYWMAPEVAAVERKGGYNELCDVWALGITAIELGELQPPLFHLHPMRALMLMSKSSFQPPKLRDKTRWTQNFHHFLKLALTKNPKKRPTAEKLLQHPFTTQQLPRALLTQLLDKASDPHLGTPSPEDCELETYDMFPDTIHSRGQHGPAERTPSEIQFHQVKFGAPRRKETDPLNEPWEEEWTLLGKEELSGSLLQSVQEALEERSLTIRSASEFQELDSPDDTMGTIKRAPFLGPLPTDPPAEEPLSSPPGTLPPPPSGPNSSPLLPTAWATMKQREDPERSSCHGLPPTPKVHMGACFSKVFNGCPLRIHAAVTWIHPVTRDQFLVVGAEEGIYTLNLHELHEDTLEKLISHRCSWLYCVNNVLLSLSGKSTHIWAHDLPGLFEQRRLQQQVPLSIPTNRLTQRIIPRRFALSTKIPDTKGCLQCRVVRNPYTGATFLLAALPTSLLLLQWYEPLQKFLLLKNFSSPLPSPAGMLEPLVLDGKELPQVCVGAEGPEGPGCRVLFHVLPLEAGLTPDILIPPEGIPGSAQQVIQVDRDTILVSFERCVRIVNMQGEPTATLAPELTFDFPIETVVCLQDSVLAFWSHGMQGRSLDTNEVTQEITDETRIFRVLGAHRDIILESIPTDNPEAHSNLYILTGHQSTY

[3] = target: Glycogen synthase kinase-3 alpha (Homo sapiens, UniProt P49840); test: Selectivity interaction (Kinase panel (Invitrogen)) EUB0000639a GSK3A; conditions: at 200 nM
Glycogen synthase kinase-3 alpha, sequence (P49840 2-483 limits assumed): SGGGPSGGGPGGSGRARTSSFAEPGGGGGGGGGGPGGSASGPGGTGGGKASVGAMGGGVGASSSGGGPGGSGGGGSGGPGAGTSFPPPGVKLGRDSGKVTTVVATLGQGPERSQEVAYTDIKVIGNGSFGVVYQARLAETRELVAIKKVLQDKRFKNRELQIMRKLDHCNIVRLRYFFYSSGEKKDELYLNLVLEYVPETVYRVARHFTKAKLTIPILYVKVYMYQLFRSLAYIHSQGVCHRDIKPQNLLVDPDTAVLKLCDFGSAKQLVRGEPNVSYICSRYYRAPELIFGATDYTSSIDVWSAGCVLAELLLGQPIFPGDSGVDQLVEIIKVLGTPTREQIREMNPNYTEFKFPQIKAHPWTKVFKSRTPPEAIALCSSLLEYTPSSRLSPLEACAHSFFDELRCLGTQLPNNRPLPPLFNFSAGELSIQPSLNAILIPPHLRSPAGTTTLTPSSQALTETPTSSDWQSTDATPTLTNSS

[4] = target: T2, Serine/threonine-protein kinase Nek1 (Homo sapiens) (UniProt Q96PY6); test: Selectivity interaction (KinomeScan (DiscoverX)) EUB0000045b NEK1
T2 sequence (whole entry): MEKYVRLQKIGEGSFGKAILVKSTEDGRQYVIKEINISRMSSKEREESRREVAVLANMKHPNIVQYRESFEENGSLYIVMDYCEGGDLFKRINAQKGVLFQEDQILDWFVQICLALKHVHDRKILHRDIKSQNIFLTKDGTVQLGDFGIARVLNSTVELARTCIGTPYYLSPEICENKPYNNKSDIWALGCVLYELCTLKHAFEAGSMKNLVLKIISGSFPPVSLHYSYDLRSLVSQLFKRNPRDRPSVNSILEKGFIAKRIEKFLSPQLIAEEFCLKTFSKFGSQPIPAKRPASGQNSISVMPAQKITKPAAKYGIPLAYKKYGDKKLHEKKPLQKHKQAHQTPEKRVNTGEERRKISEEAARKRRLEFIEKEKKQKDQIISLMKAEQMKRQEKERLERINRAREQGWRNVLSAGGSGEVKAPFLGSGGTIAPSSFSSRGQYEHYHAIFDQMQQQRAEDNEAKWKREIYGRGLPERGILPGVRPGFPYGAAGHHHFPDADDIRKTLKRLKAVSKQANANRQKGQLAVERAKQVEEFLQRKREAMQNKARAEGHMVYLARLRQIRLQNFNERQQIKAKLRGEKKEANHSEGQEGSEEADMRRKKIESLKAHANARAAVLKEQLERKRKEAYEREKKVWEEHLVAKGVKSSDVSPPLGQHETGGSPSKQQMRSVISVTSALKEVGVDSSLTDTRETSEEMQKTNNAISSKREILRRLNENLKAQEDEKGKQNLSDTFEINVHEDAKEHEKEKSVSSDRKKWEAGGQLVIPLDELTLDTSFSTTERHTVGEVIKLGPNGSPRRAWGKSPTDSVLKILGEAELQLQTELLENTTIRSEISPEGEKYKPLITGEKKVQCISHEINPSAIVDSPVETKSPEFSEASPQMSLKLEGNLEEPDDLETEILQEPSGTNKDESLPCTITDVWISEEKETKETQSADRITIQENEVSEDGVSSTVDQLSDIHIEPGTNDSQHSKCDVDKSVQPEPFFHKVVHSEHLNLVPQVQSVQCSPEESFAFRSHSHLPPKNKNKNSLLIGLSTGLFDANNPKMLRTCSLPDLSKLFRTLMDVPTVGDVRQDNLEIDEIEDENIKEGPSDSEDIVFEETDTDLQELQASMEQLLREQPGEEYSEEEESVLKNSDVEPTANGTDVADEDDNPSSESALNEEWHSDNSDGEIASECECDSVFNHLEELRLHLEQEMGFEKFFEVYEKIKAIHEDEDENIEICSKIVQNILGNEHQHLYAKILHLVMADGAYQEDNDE

[5] = target: T3, Serine/threonine-protein kinase Nek5 (Homo sapiens) (UniProt Q6P3R8); test: Selectivity interaction (KinomeScan (DiscoverX)) EUB0000618a NEK5; conditions: at 10 µM
T3 sequence (whole entry): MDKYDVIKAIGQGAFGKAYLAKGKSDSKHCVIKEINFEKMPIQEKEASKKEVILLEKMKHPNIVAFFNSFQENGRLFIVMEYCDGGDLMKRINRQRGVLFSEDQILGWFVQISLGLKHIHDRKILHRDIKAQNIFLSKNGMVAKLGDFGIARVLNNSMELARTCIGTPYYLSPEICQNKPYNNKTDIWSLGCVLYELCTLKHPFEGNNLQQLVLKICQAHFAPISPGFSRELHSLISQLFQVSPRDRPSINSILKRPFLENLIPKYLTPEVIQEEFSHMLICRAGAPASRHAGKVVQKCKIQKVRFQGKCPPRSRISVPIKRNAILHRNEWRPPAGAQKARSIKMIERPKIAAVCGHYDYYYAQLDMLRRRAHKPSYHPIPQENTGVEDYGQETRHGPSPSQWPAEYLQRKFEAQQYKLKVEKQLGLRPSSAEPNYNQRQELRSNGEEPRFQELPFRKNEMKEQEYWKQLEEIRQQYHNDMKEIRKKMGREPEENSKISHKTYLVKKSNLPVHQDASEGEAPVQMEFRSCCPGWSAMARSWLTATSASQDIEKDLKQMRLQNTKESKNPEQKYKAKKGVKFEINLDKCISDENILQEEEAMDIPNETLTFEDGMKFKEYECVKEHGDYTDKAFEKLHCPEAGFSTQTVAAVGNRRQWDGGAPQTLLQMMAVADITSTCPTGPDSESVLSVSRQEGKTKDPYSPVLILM

Homeodomain-interacting protein kinase 2, sequence (Q9H2X6 whole entry, looked up): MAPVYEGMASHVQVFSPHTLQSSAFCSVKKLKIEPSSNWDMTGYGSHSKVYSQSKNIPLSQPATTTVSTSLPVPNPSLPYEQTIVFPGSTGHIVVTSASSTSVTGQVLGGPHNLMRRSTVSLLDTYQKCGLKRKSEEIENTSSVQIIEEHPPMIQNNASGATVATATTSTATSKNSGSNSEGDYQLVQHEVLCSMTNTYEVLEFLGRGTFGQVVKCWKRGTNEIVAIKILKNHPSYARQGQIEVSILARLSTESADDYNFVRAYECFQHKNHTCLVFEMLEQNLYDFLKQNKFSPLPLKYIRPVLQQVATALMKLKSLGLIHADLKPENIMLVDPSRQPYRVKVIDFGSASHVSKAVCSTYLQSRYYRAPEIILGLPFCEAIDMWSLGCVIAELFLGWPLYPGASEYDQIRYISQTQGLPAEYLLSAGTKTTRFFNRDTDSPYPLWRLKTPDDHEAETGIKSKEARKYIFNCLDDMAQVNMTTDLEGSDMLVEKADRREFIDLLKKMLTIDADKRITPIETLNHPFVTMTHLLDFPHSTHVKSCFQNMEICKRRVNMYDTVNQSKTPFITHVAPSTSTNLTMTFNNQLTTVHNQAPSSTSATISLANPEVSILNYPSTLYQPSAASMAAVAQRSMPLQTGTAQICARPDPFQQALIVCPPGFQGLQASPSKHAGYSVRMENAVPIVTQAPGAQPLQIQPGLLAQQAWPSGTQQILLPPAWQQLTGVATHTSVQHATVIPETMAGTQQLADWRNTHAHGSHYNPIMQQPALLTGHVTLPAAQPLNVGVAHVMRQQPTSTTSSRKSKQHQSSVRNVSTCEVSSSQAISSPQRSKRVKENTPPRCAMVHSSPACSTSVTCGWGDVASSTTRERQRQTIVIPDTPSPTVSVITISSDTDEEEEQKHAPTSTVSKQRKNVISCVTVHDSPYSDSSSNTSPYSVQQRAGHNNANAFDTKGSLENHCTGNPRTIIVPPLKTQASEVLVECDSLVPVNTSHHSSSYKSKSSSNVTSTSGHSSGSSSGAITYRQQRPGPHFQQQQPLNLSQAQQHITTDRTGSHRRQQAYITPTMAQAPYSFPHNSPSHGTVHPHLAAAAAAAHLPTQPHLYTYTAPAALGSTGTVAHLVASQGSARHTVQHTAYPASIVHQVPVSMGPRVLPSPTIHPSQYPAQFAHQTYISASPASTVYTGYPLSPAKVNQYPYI

% of control [1]: 5.72%
Compound: Cn1cc(-n2cnc3c(NCc4nc5cc(Cl)c(Cl)cc5[nH]4)nc(N4CCOCC4)nc32)cn1

% of inhibition ([2]; at 0.01 µM): -10% | % of inhibition ([2]; at 0.04 µM): -5.8% | % of inhibition ([2]; at 0.2 µM): -8.2% | % of inhibition ([2]; at 1 µM): -2.9% | % of inhibition ([2]; at 5 µM): -12.1% | % of inhibition [3]: 7.43%
Compound: CC[C@@H]1[C@H](F)C(=O)N[C@@H]1COc1nccc2cc(C(N)=O)c(OC)cc12 [ZIMLOVISERTIB]

Compound: C=CC(=O)Nc1cc(-n2c(=O)ccc3cnc4ccc(-c5ccc(NS(C)(=O)=O)cc5)cc4c32)ccc1C
% of control ([4]; at 1 µM): 100% | % of control ([4]; at 10 µM): 81%

Compound: O[C@H]1CC[C@H](Nc2ncc3nc(Nc4c(F)cc(F)cc4F)n([C@H]4CCOC4)c3n2)CC1
% of control [5]: 100%
